Patent US8802597B2, “Herbicidal pyrimidines” (E I du Pont de Nemours and Company, priority 2003, dated 2014)

What was measured:
Experiment in all cases: Test G pre/postemergence
Assay type in all cases: in vivo
[1] = test system: common chickweed (Stellaria media)
In short: (§1)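 Pre- and postemergence greenhouse test; compound in non-phytotoxic solvent/surfactant mix. Post timing: 2–18 cm plants, 1- to 4-leaf. Visual rating vs controls at 12–21 d, 0 (no effect) to 100 (complete control).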

[2] = test system: pitted morningglory (Ipomoea lacunosa)
In short: as §1

[3] = test system: black mustard (Brassica nigra)
In short: as §1

[4] = test system: Surinam grass (Brachiaria decumbens)
In short: as §1

[5] = test system: annual bluegrass (Poa annua)
In short: as §1

[6] = test system: Italian ryegrass (Lolium multiflorum)
In short: as §1

[7] = test system: common mallow (Malva sylvestris)
In short: as §1

[8] = test system: dallisgrass (Paspalum dilatatum)
In short: as §1

[9] = test system: southern sandbur (Cenchrus echinatus)
In short: as §1

[10] = test system: bermudagrass (Cynodon dactylon)
In short: as §1

[11] = test system: quackgrass (Elytrigia repens)
In short: as §1

[12] = test system: johnsongrass (Sorghum halepense)
In short: as §1

[13] = test system: green foxtail (Setaria viridis)
In short: as §1

[14] = test system: itchgrass (Rottboellia cochinchinensis)
In short: as §1

[15] = Postemergence, 250 g ai/ha, scale 0 to 100
[16] = Postemergence, 125 g ai/ha, scale 0 to 100
[17] = Postemergence, 375 g ai/ha, scale 0 to 100
[18] = Preemergence, 62 g ai/ha, scale 0-100
[19] = Preemergence, 125 g ai/ha, scale 0-100
[20] = Preemergence, 250 g ai/ha, scale 0-100
[21] = Preemergence, 500 g ai/ha, scale 0 to 100
[22] = Preemergence, 375 g ai/ha, scale 0 to 100
[23] = Postemergence, 500 g ai/ha, scale 0 to 100
[24] = Postemergence, 62 g ai/ha, scale 0 to 100
[25] = Preemergence, 500 g ai/ha, scale 0-100

SMILES: CCOC(=O)c1nc(C2CC2)nc(N)c1Br [Compound 1, ethyl 6-amino-5-bromo-2-cyclopropyl-4-pyrimidinecarboxylate]
- Plant response rating, Chickweed [1, 15]: 95
- Plant response rating, Chickweed [1, 16]: 95
- Plant response rating, Chickweed [1, 17]: 100
- Plant response rating, Chickweed [1, 18]: 70
- Plant response rating, Chickweed [1, 19]: 95
- Plant response rating, Chickweed [1, 20]: 95
- Plant response rating, Chickweed [1, 21]: 100
- Plant response rating, Chickweed [1, 22]: 100
- Plant response rating, Morningglory [2, 15]: 100
- Plant response rating, Morningglory [2, 23]: 100
- Plant response rating, Morningglory [2, 24]: 100
- Plant response rating, Morningglory [2, 16]: 100
- Plant response rating, Morningglory [2, 17]: 100
- Plant response rating, Morningglory [2, 18]: 95
- Plant response rating, Morningglory [2, 19]: 100
- Plant response rating, Morningglory [2, 20]: 100
- Plant response rating, Morningglory [2, 25]: 100
- Plant response rating, Morningglory [2, 21]: 100
- Plant response rating, Black Mustard [3, 15]: 75
- Plant response rating, Black Mustard [3, 23]: 75
- Plant response rating, Black Mustard [3, 24]: 60
- Plant response rating, Black Mustard [3, 16]: 75
- Plant response rating, Black Mustard [3, 17]: 75
- Plant response rating, Black Mustard [3, 18]: 30
- Plant response rating, Black Mustard [3, 19]: 80
- Plant response rating, Black Mustard [3, 20]: 85
- Plant response rating, Black Mustard [3, 21]: 100
- Plant response rating, Black Mustard [3, 22]: 100
- Plant response rating, Surinam Grass [4, 15]: 85
- Plant response rating, Surinam Grass [4, 23]: 90
- Plant response rating, Surinam Grass [4, 24]: 30
- Plant response rating, Surinam Grass [4, 16]: 60
- Plant response rating, Surinam Grass [4, 17]: 90
- Plant response rating, Surinam Grass [4, 18]: 95
- Plant response rating, Surinam Grass [4, 19]: 95
- Plant response rating, Surinam Grass [4, 20]: 95
- Plant response rating, Surinam Grass [4, 25]: 95
- Plant response rating, Surinam Grass [4, 21]: 100
- Plant response rating, Bluegrass [5, 15]: 40
- Plant response rating, Bluegrass [5, 23]: 50
- Plant response rating, Bluegrass [5, 24]: 20
- Plant response rating, Bluegrass [5, 16]: 30
- Plant response rating, Bluegrass [5, 17]: 50
- Plant response rating, Bluegrass [5, 18]: 10
- Plant response rating, Bluegrass [5, 19]: 30
- Plant response rating, Bluegrass [5, 20]: 85
- Plant response rating, Bluegrass [5, 21]: 85
- Plant response rating, Ryegrass, Italian [6, 15]: 40
- Plant response rating, Ryegrass, Italian [6, 23]: 40
- Plant response rating, Ryegrass, Italian [6, 24]: 0
- Plant response rating, Ryegrass, Italian [6, 16]: 10
- Plant response rating, Ryegrass, Italian [6, 17]: 40
- Plant response rating, Ryegrass, Italian [6, 18]: 0
- Plant response rating, Ryegrass, Italian [6, 19]: 10
- Plant response rating, Ryegrass, Italian [6, 20]: 30
- Plant response rating, Ryegrass, Italian [6, 25]: 95
- Plant response rating, Ryegrass, Italian [6, 21]: 95
- Plant response rating, Mallow [7, 15]: 70
- Plant response rating, Mallow [7, 23]: 95
- Plant response rating, Mallow [7, 24]: 50
- Plant response rating, Mallow [7, 16]: 60
- Plant response rating, Mallow [7, 17]: 95
- Plant response rating, Mallow [7, 18]: 50
- Plant response rating, Mallow [7, 19]: 80
- Plant response rating, Mallow [7, 20]: 95
- Plant response rating, Mallow [7, 25]: 95
- Plant response rating, Mallow [7, 21]: 95
- Plant response rating, Dallisgrass [8, 15]: 30
- Plant response rating, Dallisgrass [8, 23]: 30
- Plant response rating, Dallisgrass [8, 24]: 10
- Plant response rating, Dallisgrass [8, 16]: 20
- Plant response rating, Dallisgrass [8, 17]: 30
- Plant response rating, Dallisgrass [8, 18]: 0
- Plant response rating, Dallisgrass [8, 19]: 10
- Plant response rating, Dallisgrass [8, 20]: 50
- Plant response rating, Dallisgrass [8, 21]: 95
- Plant response rating, Dallisgrass [8, 22]: 95
- Plant response rating, Sandbur [9, 15]: 95
- Plant response rating, Sandbur [9, 23]: 95
- Plant response rating, Sandbur [9, 24]: 30
- Plant response rating, Sandbur [9, 16]: 60
- Plant response rating, Sandbur [9, 17]: 95
- Plant response rating, Sandbur [9, 18]: 0
- Plant response rating, Sandbur [9, 19]: 30
- Plant response rating, Sandbur [9, 20]: 70
- Plant response rating, Sandbur [9, 25]: 85
- Plant response rating, Sandbur [9, 21]: 85
- Plant response rating, Bermudagrass [10, 15]: 40
- Plant response rating, Bermudagrass [10, 23]: 50
- Plant response rating, Bermudagrass [10, 24]: 25
- Plant response rating, Bermudagrass [10, 16]: 25
- Plant response rating, Bermudagrass [10, 17]: 40
- Plant response rating, Bermudagrass [10, 18]: 10
- Plant response rating, Bermudagrass [10, 19]: 20
- Plant response rating, Bermudagrass [10, 20]: 30
- Plant response rating, Bermudagrass [10, 21]: 70
- Plant response rating, Bermudagrass [10, 22]: 70
- Plant response rating, Quackgrass [11, 15]: 60
- Plant response rating, Quackgrass [11, 23]: 70
- Plant response rating, Quackgrass [11, 24]: 10
- Plant response rating, Quackgrass [11, 16]: 30
- Plant response rating, Quackgrass [11, 17]: 70
- Plant response rating, Quackgrass [11, 18]: 10
- Plant response rating, Quackgrass [11, 19]: 60
- Plant response rating, Quackgrass [11, 20]: 90
- Plant response rating, Quackgrass [11, 25]: 95
- Plant response rating, Quackgrass [11, 21]: 95
- Plant response rating, Johnsongrass [12, 15]: 95
- Plant response rating, Johnsongrass [12, 23]: 95
- Plant response rating, Johnsongrass [12, 24]: 70
- Plant response rating, Johnsongrass [12, 16]: 70
- Plant response rating, Johnsongrass [12, 17]: 95
- Plant response rating, Johnsongrass [12, 18]: 20
- Plant response rating, Johnsongrass [12, 19]: 40
- Plant response rating, Johnsongrass [12, 20]: 60
- Plant response rating, Johnsongrass [12, 25]: 75
- Plant response rating, Johnsongrass [12, 21]: 75
- Plant response rating, Foxtail, Green [13, 15]: 30
- Plant response rating, Foxtail, Green [13, 23]: 60
- Plant response rating, Foxtail, Green [13, 24]: 10
- Plant response rating, Foxtail, Green [13, 16]: 20
- Plant response rating, Foxtail, Green [13, 17]: 50
- Plant response rating, Foxtail, Green [13, 18]: 10
- Plant response rating, Foxtail, Green [13, 19]: 10
- Plant response rating, Foxtail, Green [13, 20]: 50
- Plant response rating, Foxtail, Green [13, 21]: 90
- Plant response rating, Foxtail, Green [13, 22]: 90
- Plant response rating, Itchgrass [14, 15]: 60
- Plant response rating, Itchgrass [14, 23]: 70
- Plant response rating, Itchgrass [14, 24]: 20
- Plant response rating, Itchgrass [14, 16]: 40
- Plant response rating, Itchgrass [14, 17]: 60
- Plant response rating, Itchgrass [14, 18]: 10
- Plant response rating, Itchgrass [14, 19]: 30
- Plant response rating, Itchgrass [14, 20]: 80
- Plant response rating, Itchgrass [14, 25]: 85
- Plant response rating, Itchgrass [14, 21]: 90
